Results reported in patent US6280760A, “Peptide-coated implants and methods for producing same” (Merck Patent Gesellschaft mit beschraenkter Haftung, priority 1997, dated 2001).

Columns and labels:
[1] = system: osteoblasts/platelets mixture; test: Adhesion of an osteoblast/platelet mixture to PMMA bone cement shaped articles coated with cell-selective acrylate peptides; type: cell-based, mouse, human; conditions: second part experiment; 100 μM peptide in the coating solution
Method: (§1) b. In the second part experiment, PMMA shaped articles were likewise coated with the acrylate peptides 3 and 5, but only in a concentration in the coating solution of 100 μM in each case. These RGD peptide-coated materials were then inoculated in parallel with osteoblasts, platelets or an osteoblast/platelet mixture and their cell adhesion was determined. MC3T3 H1 osteoblasts (350,000 cells/cm^2), human platelets (50 million cell/cm^2) and a cell mixture (350,000 osteoblasts/cm^2 […] 50 million platelets/cm^2) were in each case inoculated in parallel both onto acrylate peptide 3- and acrylate peptide 5-coated PMMA shaped articles and their cell adhesion was determined as described in Example 3.

MC3T3 H1 osteoblasts [2] = test: Adhesion of MC3T3 H1 osteoblasts to PMMA moulded articles coated with acrylate RGD peptides; type: cell-based, mouse
Method: For the covalent coupling of these peptides to polymerized PMMA (polymethyl methacrylate) surfaces, appropriate shaped articles of differing porosity (diameter: 10 mm; height: 2 mm) were prepared from three different PMMA components.
Bone cement based on PMMA (Merck KGaA, Germany, Licence No. 5181.00.00) corresponding to the product description (40 g of powder+20 ml of liquid).
10 g of PMMA/PHEMA (polyhydroxyethyl methacrylate) granules, particle size 0.5-0.6 mm (Biomet) were mixed with 1.3 ml of an HEMA solution (68.6% HEMA, 29.4% TEGMA [triethylene glycol dimethacrylate], 2% tBPB, [tert-butyl peroxybenzoate]) and adhered by means of this to a porous support material.
10 g of PMMA granules (Plex Y7H, Rohm, Germany), particle fraction 0.7-2 mm were mixed with 1.5 ml of a methyl methacrylate (MMA) solution (68.6% MMA, 29.4% TEGMA, 2% tBPB) and adhered by this means to a porous support material.
For the covalent coupling of the acrylate peptides to the prepolymerized PMMA moulded articles, stock solutions of the acrylate peptides 1, 2, 3 and 4 were prepared in a final concentration of 100 μM in each case in DMSO/0.2% camphorquinone (w/v). Then, by dilution with isopropanol/0.2% camphorquinone (w/v), concentration series having final peptide concentrations of 0.1 nM, 1 nM, 10 nM, 100 nM, 1 μM and 10 μM in each case were prepared. The moulded articles were incubated in daylight and at room temperature for 2 hours and then stored at 4° C. in the dry state. Before use, the samples were washed with PBS, pH 7.4, to remove unbound peptides and stored at 4° C. in PBS, pH 7.4, overnight.
By addition of 250 μl/moulded article each of a 5% strength BSA solution in PBS, pH 7.4, and subsequent incubation for 2 hours at room temperature and washing once with PBS, pH 7.4, non-specific cell-binding sites were blocked.
Subsequently, the adhesion of osteoblasts of the MC3T3 H1 line, obtained from the calvaria of neonatal mice (Heermeier et al., 1995, Cells and Materials 5: 309-321) to the above-described peptide-coated surfaces was investigated.
The MC3T3 H1 osteoblasts were inoculated at an inoculation density of 48,000 cells/cm^2, as described above, in Costar 48-well plates, with PMMA moulded articles coated with RGD peptide and then incubated for 1 hour at 37° C., 95% atmospheric humidity and 5% CO2. Cells non-adhered during the experiment were then washed off twice with PBS, pH 7.4.
The quantification of the adhered cells was carried out indirectly via the activity determination of the cellular enzyme N-acetylhexosaminidase using an appropriate standard curve according to the method of Landegren (1984, J. Immunol. Methods, 67: 379-388).

human platelets = test: Adhesion of human platelets to PMMA bone cement shaped articles coated with cell-selective acrylate peptides; type: cell-based; conditions: for cell adhesion, calculated Abs (405 nm), platelets: first part experiment
From the text: (§2) The model used for material coating with RGD peptides of different cell selectivity to obtain implants having locally differentiated bioactive coating patterns which should stimulate the adhesion of different cell species was polymerized PMMA bone cement shaped articles. To these were covalently coupled two RGD peptides of different cell selectivity. In this case acrylate peptide 3, type iiia, having a selectivity for alphav beta3 -/alphav beta5 -integrin-bearing osteoblasts, and acrylate peptide 5, type iiia, having a selectivity for […] -positive platelets were bonded to the PMMA shaped articles as described for Example 3.
(§3) a. In the first part experiment, PMMA shaped articles were coated with the acrylate peptides 3 and 5 in concentrations in the coating solution of 100 μM, 10 μM and 1 μM in each case. These RGD peptide-coated materials were then inoculated in parallel with osteoblasts and platelets and their cell adhesion was determined.
(§4) MC3T3 H1 osteoblasts (350,000 cells/cm^2) and human platelets (50 million cells/cm^2) were in each case inoculated in parallel both onto acrylate peptide 3- and acrylate peptide 5-coated PMMA shaped articles and their cell adhesion was determined as described in Example 3.
Human platelets were prepared following the process of Shattil and Brass (J. Biol. Chem. 262:992-1000, 1987).
as §1

MC3T3 H1 osteoblasts [3] = test: Proliferation of MC3T3 H1 osteoblasts on RGD peptide-coated PMMA bone cement shaped articles (WST-1 test); type: cell-based, mouse
From the text: For the covalent coupling of acrylate peptide 3, type iiia, to polymerized PMMA bone cement shaped articles, a coating process which was described in Example 3 was selected.
MC3T3 H1 mouse osteoblasts were then adhered to these RGD peptide-coated bone cement shaped articles as likewise described in Example 3, but with two differences: 12,000 cells/cm^2 instead of 48,000 cells/cm^2 were inoculated and the adhesion time was two hours instead of one hour. Additionally, only three different peptide concentrations were investigated in the coating solution: 0.01 μM, 1 μM and 100 μM.
After washing off non-adherent cells, the MC3T3 H1 osteoblasts were cultured under 95% atmospheric humidity and 5% CO2 at 37° C. in serum-containing (10%) culture medium for a period of 15 days. During the course of this, the medium was changed twice per week and after 1, 2, 3, 4, 5, 10 and 15 days the cell count was determined by means of the WST-1 test by Boehringer Mannheim, Germany. In each case a typical exponential course of the cell proliferation of the cultured osteoblasts was seen here (FIG. 13). The maximally achieved cell count was directly dependent on the RGD peptide concentration in the coating solution. Thus after 15 culturing days per cm^2, about 1,000,000 cells (100 μM peptide), about 550,000 cells (1 μM peptide), about 300,000 cells (0.01 μM peptide) or about 230,000 cells were achieved (control without peptide). At the highest peptide concentration of 100 μM, an approximately 4- to 5-fold increase in the cell proliferation in comparison with uncoated samples was thus observed.

MC3T3 H1 osteoblasts [4] = test: Adhesion of MC3T3 H1 osteoblasts to PMMA bone cement shaped articles coated with cell-selective acrylate peptides; type: cell-based, mouse; conditions: for cell adhesion, calculated Abs (405 nm), osteoblasts: first part experiment
From the text: as §2, §3, §4, §1

[5] = 1 μM peptide in the coating solution
[6] = 10 μM peptide in the coating solution
[7] = 100 μM peptide in the coating solution
[8] = second part experiment, 100 μM peptide in the coating solution

For “cyclo(RGDf[acrylic-ahx-tEG-K]) [acrylate peptide 3]”, the “cell adhesion, Abs, osteoblasts/platelets inoculated as a mixture” value [1] was “about 6.5 Abs”, the “stimulation of cell adhesion (in words)” value (MC3T3 H1 osteoblasts [2]; PMMA carriers, comparison of anchor lengths) was “higher activity” and the “cell adsorption rates increased in comparison with uncoated surfaces” value (shortened to “cell adsorption rates increased”) (MC3T3 H1 osteoblasts [2]; bone cement shaped articles, FIG. 8) was 5-15 fold. The maximal adsorption rates (MC3T3 H1 osteoblasts [2]; different PMMA moulded articles, 48,000 cells/cm^2, 1 hour) was 80-100%, the EC50 (MC3T3 H1 osteoblasts [2]; different PMMA moulded articles, read-out: half-maximal cell bindings, RGD peptide concentration in the coating solution) was 0.001 to 10 µM and the “cell adsorption rates increased” value (MC3T3 H1 osteoblasts [2]; porous PMMA/PHEMA granule shaped articles, FIG. 9) was 2-5 fold. For the same substance, the “cell adsorption rates increased” value (MC3T3 H1 osteoblasts [2]; porous Plex Y7H granule shaped articles, FIG. 10) was 2-3 fold, the “cell adhesion, calculated Abs (405 nm), platelets” value (human platelets; [5]) was “about 0.2 Abs” and the “cell adhesion, calculated Abs (405 nm), platelets” value (human platelets; [6]) was “about 1.5 Abs”. For the same substance, the “cell adhesion, calculated Abs (405 nm), platelets” value (human platelets; [7]) was “about 3.0 Abs”, the “cell adhesion, Abs, platelets alone” value (human platelets; [8]) was “about 3.0 Abs” and the “cell count after 15 culturing days per cm^2” value (shortened to “cell count … per cm^2”) (MC3T3 H1 osteoblasts [3]; 0.01 μM peptide in the coating solution) was “about 300,000 cells”. The “cell count … per cm^2” value (MC3T3 H1 osteoblasts [3]; [5]) was “about 550,000 cells”, the “cell count … per cm^2” value (MC3T3 H1 osteoblasts [3]; [7]) was “about 1,000,000 cells” and the “cell adhesion, calculated Abs (405 nm), osteoblasts” value (MC3T3 H1 osteoblasts [4]; [5]) was “about 1.8 Abs”. The “cell adhesion, calculated Abs (405 nm), osteoblasts” value (MC3T3 H1 osteoblasts [4]; [6]) was “about 2.0 Abs”, the “cell adhesion, calculated Abs (405 nm), osteoblasts” value (MC3T3 H1 osteoblasts [4]; [7]) was “about 6.0 Abs” and the “cell adhesion, Abs, osteoblasts alone” value (MC3T3 H1 osteoblasts [4]; [8]) was “about 6.0 Abs”.
